Reference: patent US20070190068A1, “uPAR-binding molecule-drug conjugates and uses thereof” (priority 2005, published 2007)

System: MDA-231 GFP tumors
Assay: Human breast carcinoma MDA-MB-231 GFP xenograft in nude mice (tumor volume)
Type: in vivo, BALB/c (nu/nu) mice
Details: week 14
Text: FIG. 5. Preliminary dose defining study. Effect of anti-human uPAR IgG (Mab 3936), doxorubicin, Mab 3936-Doxorubicin conjugate on xenograft human breast cancer tumor model in nude mice (MDA-231 GFP tumors). Tumor volume (mm^3) from week 8 to week 11 post tumor cell inoculation were compared. Bar graph from left to right: animals received control serum, doxorubicin via intravenous (DOX I.V.), doxorubicin via […] (DOX I.P.), Mab 3936 (3936) or Mab 3936-doxorubicin conjugate (3936+DOX) (2 mg/animal).
FIG. 6. Effect of anti-human uPAR IgG (Mab 3936), doxorubicin, Mab 3936-doxorubicin conjugate on xenograft human breast cancer tumor model in nude mice (MDA-231 GFP tumors). Tumor volume (mm^3) from week 5 to week 15 post tumor cell inoculation were compared. Bar graph from left to right: animals received control serum, doxorubicin via intravenous, Mab 3936, doxorubicin via […], and Mab 3936-doxorubicin conjugate.
FIG. 7. […]
For xenograft studies, 4 to 6 weeks old BALB/c (nu/nu) female mice were obtained from Charles River Inc. The mice weighed an average of 20 grams. […] The tumor mass was measured in two dimensions with calipers, twice a week.
Throughout the course of these studies, all control and experimental mice were monitored for any noticeable side effects. […]

Molecule `COc1cccc2c1C(=O)c1c(O)c3c(c(O)c1C2=O)C[C@@](O)(C(=O)CO)C[C@@H]3O[C@H]1C[C@H](N)[C@H](O)[C@H](C)O1` [doxorubicin] has a tumor volume of 330 mm^3.
